Data from patent US20250360160A1, “NEW MEDICAL USE OF TAFOXIPARIN” (DILAFOR AB, priority 2022, published 2025).

Tested on: term pregnant, nulliparous women with an unripe cervix
Assay: Clinical phase II trial PPL17 (Parts A and B), subcutaneous tafoxiparin vs placebo
Type: in vivo, human
Details: for Labor induced with PGE-1, percent of subjects: placebo 10.2%; for Fetal distress as indication for operative delivery (ODFD), percent of patients: placebo 22.7%; for Percent of patients with operative delivery / proportion of women needing instrumental delivery: placebo 45.5%; for Labor induced with oxytocin, percent of subjects / proportion of women reaching spontaneous onset of labor with uncomplicated delivery: placebo 54.5%; for Labor induced with amniotomy, percent of subjects: placebo 56.8%; for Labor induction with Balloon catheter, percent of subjects: placebo 58.0%; for Labor induced, percent of subjects: placebo 70.5%; for number of women needing instrumental delivery: spontaneous onset of labor; for proportion reaching partus by vaginal delivery with no need for instrumental delivery nor caesarian section: placebo 48%; for proportion reaching partus by vaginal delivery with no need for instrumental delivery nor caesarian section / proportion of women needing instrumental delivery or caesarian section to reach partus: FIG. 5; for proportion of women needing instrumental delivery or caesarian section to reach partus: placebo 52%; for proportion of women needing instrumental delivery: vaginal mode of partus, FIG. 4; for number of subjects (women) that reach spontaneous onset of labor / percent of subjects (women) that reach spontaneous onset of labor: n=37
Description: A clinical phase II trial is performed as a randomized, double-blind, placebo-controlled, parallel-group proof of concept study (Part A) with a conditional dose finding follow up study (Part B) to evaluate the efficacy, safety, tolerability and dose response of subcutaneously administered tafoxiparin as a supplement to induction therapy in term pregnant, nulliparous women with an unripe cervix. The study is performed in Sweden and Finland (PPL17), and an EMA (European Medicines Agency) description of the study can be found on the EU Clinical Trials Register web (www.clinicaltrialsregister.eu/ctr-search/search?query=PPL17).
A total of 170 term pregnant women are randomized to receive either 300 mg of tafoxiparin, or corresponding placebo (vehicle), administered subcutaneously every 24±3 hours and up to a total of 7 doses, or until partus (Part A).
In the dose finding follow up study (Part B), a total of 164 term pregnant women are randomized to receive either 75 or 150 mg of tafoxiparin administered subcutaneously every 24±3 hours […] and up to a total of 7 doses, or until partus.
To assess the efficacy of tafoxiparin on cervical ripening/cervical ripening rate, during and up to the first seven days of treatment, measured by Bishop score. All women must be examined to check the cervical state before enrollment.
Time from start of treatment to increase in Bishop score of ≥2 points or spontaneous onset of labor, whichever comes first. Time from start of treatment to increase in Bishop score of ≥3 points or spontaneous onset of labor, whichever comes first. Time from start of treatment to increase in Bishop score of ≥4 points or spontaneous onset of labor, whichever comes first.
Cervical ripening as measured by change from baseline to end of treatment in Bishop Score. Time from onset of labor to partus, where onset of labor is defined as last record of 4 cm cervical dilatation visualized in the partogram and progress of labor, or last record of 4 cm of cervical dilatation in combination with amniotomy and intravenous administration oxytocin.
Proportion of women with spontaneous onset of labor (Response group I).
Tafoxiparin/Placebo is supplied by Dilafor AB to the site as kits designed to constitute 300 mg of tafoxiparin or placebo for daily administration. Apart from the active substance, each ml of study drug will constitute 0.015 M phosphate buffer. The study medication kit for each patient will contain 8 doses consisting of 2 vials containing a minimum extractable volume of 1.6 ml of 150 mg/ml of tafoxiparin or placebo. One dose is a reserve dose in case a dose is rendered unusable. The investigational product should be administered subcutaneously every 24±3hours by the site staff for up to 7 doses, or until partus. At each dosing time 1.0 ml of the drug will be extracted from each of the 2 vials and injected as separate s.c. injections in the abdominal or hip region.
Tafoxiparin/Placebo is supplied by Dilafor AB to the site as kits designed to constitute 75 or 150 mg of tafoxiparin for daily administration. Apart from the active substance, each ml of study drug will constitute 0.015 M phosphate buffer. The study medication kit for each patient will contain 8 doses consisting of 2 vials for each injection occasion containing a minimum extractable volume of 1.6 ml of 150 mg/ml of tafoxiparin or placebo. For subjects receiving 75 mg of tafoxiparin, one vial will contain active substance and one containing placebo. For subjects receiving 150 mg of tafoxiparin, both vials will contain active substance. One dose is a reserve dose in case a dose is rendered unusable. The investigational product should be administered subcutaneously every 24±3 hours by the site staff for up to 7 doses, or until partus. At each dosing time, 0.5 ml of the drug will be extracted from each of the 2 vials and injected as separate s.c. injections in the abdominal or hip region. […]

[1] = 150 mg, n = 85, listed as tafoxiparin
[2] = 150 mg, women with spontaneous onset of labor, of 36
[3] = 300 mg, n = 91, listed as tafoxiparin
[4] = 300 mg, women with spontaneous onset of labor, of 37

Q: How did the “Labor induced with PGE-1, percent of subjects” value [1] turn out when tafoxiparin was run?
A: 8.2%

Q: And the “Fetal distress as indication for operative delivery (ODFD), percent of patients” value (150 mg, n = 85)?
A: 23.5%

Q: And the “Percent of patients with operative delivery” value (150 mg, n = 85)?
A: 48.2%

Q: What about the “Labor induced with oxytocin, percent of subjects” value (150 mg, n = 85) of the same substance?
A: (44.7%)

Q: What about the “Labor induced with oxytocin, percent of subjects” value [1] of the same substance?
A: 44.7%

Q: And the “Labor induced with amniotomy, percent of subjects” value (150 mg, n = 85)?
A: (45.9%)

Q: What about the “Labor induced with amniotomy, percent of subjects” value [1] of the same substance?
A: 45.9%

Q: What about the “Labor induction with Balloon catheter, percent of subjects” value (“Labor induction … percent of subjects” for short) (150 mg, n = 85) of the same substance?
A: (43.5%)

Q: And the “Labor induction … percent of subjects” value [1]?
A: 43.5%

Q: What about the “Labor induced, percent of subjects” value (150 mg, n = 85) of the same substance?
A: (56.5%)

Q: And the “Labor induced, percent of subjects” value [1]?
A: 56.5%

Q: What about the “number of women reaching spontaneous onset of labor with uncomplicated delivery” value (150 mg, of 32 women) of the same substance?
A: 23 women

Q: What about the “proportion of women reaching spontaneous onset of labor with uncomplicated delivery” value (150 mg, of 32 women) of the same substance?
A: 71.9%

Q: What about the “number of women needing instrumental delivery or caesarian section to reach partus” value (150 mg, of 36 women) of the same substance?
A: 13 women

Q: And the “number reaching partus by vaginal delivery with no need for instrumental delivery nor caesarian section” value (150 mg, of 36 women)?
A: 23 women

Q: What about the “number of women achieving spontaneous onset of labor” value (150 mg, of 85 women) of the same substance?
A: 36 women

Q: And the “number of women needing instrumental delivery” value (150 mg, of 32 women)?
A: 9 women

Q: What about the “proportion reaching partus by vaginal delivery with no need for instrumental delivery nor caesarian section” value [2] of the same substance?
A: 63.9%

Q: And the “proportion of women needing instrumental delivery or caesarian section to reach partus” value [2]?
A: 36.1%

Q: What about the “proportion of women needing instrumental delivery” value (150 mg, women with spontaneous onset of labor, of 32, p 0.422) of the same substance?
A: 28.1%

Q: What about the “time point of spontaneous onset of labor (change of Bishop score)” value (300 mg and 150 mg vs 75 mg and placebo, FIG. 3) of the same substance?
A: achieved spontaneous onset of labor at an earlier time point

Q: What about the “proportion of women achieving spontaneous onset of labor” value (300 mg daily s.c., of 90 women, p=0.089, placebo 28.7%, FIG. 1) of the same substance?
A: 41.1%

Q: And the “number of subjects (women) that reach spontaneous onset of labor” value (from here on “number of subjects … of labor”) (300 mg, Study day 1)?
A: 2

Q: And the “percent of subjects (women) that reach spontaneous onset of labor” value (“percent of subjects … of labor” below) (300 mg, Study day 1)?
A: (5%)

Q: And the “number of subjects … of labor” value (300 mg, Study day 2)?
A: 11

Q: What about the “percent of subjects … of labor” value (300 mg, Study day 2) of the same substance?
A: (30%)

Q: What about the “number of subjects … of labor” value (300 mg, Study day 3) of the same substance?
A: 18

Q: And the “percent of subjects … of labor” value (300 mg, Study day 3)?
A: (49%)

Q: And the “number of subjects … of labor” value (300 mg, Study day 4)?
A: 23

Q: What about the “percent of subjects … of labor” value (300 mg, Study day 4) of the same substance?
A: (62%)

Q: And the “number of subjects … of labor” value (300 mg, Study day 5)?
A: 30

Q: And the “percent of subjects … of labor” value (300 mg, Study day 5)?
A: (81%)

Q: What about the “number of subjects … of labor” value (300 mg, Study day 6) of the same substance?
A: 34

Q: And the “percent of subjects … of labor” value (300 mg, Study day 6)?
A: (92%)

Q: What about the “number of subjects … of labor” value (300 mg, Study day 7) of the same substance?
A: 37

Q: And the “percent of subjects … of labor” value (300 mg, Study day 7)?
A: (100%)

Q: And the “Fetal distress as indication for operative delivery (ODFD), number of patients” value (300 mg, n = 91)?
A: 11

Q: What about the “Labor induced with PGE-1, number of subjects” value (300 mg, n = 91) of the same substance?
A: 5

Q: What about the “Labor induced with amniotomy, number of subjects” value (300 mg, n = 91) of the same substance?
A: 50

Q: And the “Labor induced with oxytocin, number of subjects” value (300 mg, n = 91)?
A: 45

Q: And the “Labor induction with Balloon catheter, number of subjects” value (300 mg, n = 91)?
A: 42

Q: What about the “Labor induced, number of subjects” value (300 mg, n = 91, onset of labor with intervention) of the same substance?
A: 53

Q: What about the “Labor induced with PGE-1, percent of subjects” value (300 mg, n = 91) of the same substance?
A: (5.5%)

Q: What about the “Labor induced with PGE-1, percent of subjects” value [3] of the same substance?
A: 5.5%

Q: What about the “Fetal distress as indication for operative delivery (ODFD), percent of patients” value (300 mg, n = 91) of the same substance?
A: 12.1%

Q: And the “Percent of patients with operative delivery” value (300 mg, n = 91)?
A: 35.2%

Q: What about the “Labor induced with oxytocin, percent of subjects” value (300 mg, n = 91) of the same substance?
A: (49.5%)

Q: And the “Labor induced with oxytocin, percent of subjects” value [3]?
A: 49.5%

Q: And the “Labor induced with amniotomy, percent of subjects” value (300 mg, n = 91)?
A: (54.9%)

Q: What about the “Labor induced with amniotomy, percent of subjects” value [3] of the same substance?
A: 54.9%

Q: And the “Labor induction … percent of subjects” value (300 mg, n = 91)?
A: (46.2%)

Q: And the “Labor induction … percent of subjects” value [3]?
A: 46.2%

Q: And the “Labor induced, percent of subjects” value (300 mg, n = 91)?
A: (58.2%)

Q: What about the “Labor induced, percent of subjects” value [3] of the same substance?
A: 58.2%

Q: What about the “number of women reaching spontaneous onset of labor with uncomplicated delivery” value (300 mg, of 33 women) of the same substance?
A: 27 women

Q: And the “proportion of women reaching spontaneous onset of labor with uncomplicated delivery” value (300 mg, of 33 women)?
A: 81.8%

Q: And the “number of women needing instrumental delivery or caesarian section to reach partus” value (300 mg, of 37 women)?
A: 10 women

Q: And the “number reaching partus by vaginal delivery with no need for instrumental delivery nor caesarian section” value (300 mg, of 37 women)?
A: 27 women

Q: What about the “number of women achieving spontaneous onset of labor” value (300 mg, of 90 women) of the same substance?
A: 37 women

Q: And the “number of women needing instrumental delivery” value (300 mg, of 33 women)?
A: 6 women

Q: What about the “proportion reaching partus by vaginal delivery with no need for instrumental delivery nor caesarian section” value [4] of the same substance?
A: 73%

Q: What about the “proportion of women needing instrumental delivery or caesarian section to reach partus” value [4] of the same substance?
A: 27%

Q: And the “proportion of women needing instrumental delivery” value (300 mg, women with spontaneous onset of labor, of 33, p=0.048)?
A: 18.2%

Q: What about the “achieving spontaneous onset of labor (conclusion)” value (all three doses 300 mg, 150 mg and 75 mg) of the same substance?
A: effective for achieving spontaneous onset of labor

Q: What about the “mode of partus (conclusion)” value (all three doses 300 mg, 150 mg and 75 mg, compared to placebo) of the same substance?
A: effective for a person to reach partus by vaginal delivery and with less need for instrumental delivery or caesarian section

Q: And the “need for instrumental delivery (conclusion)” value (all three doses (300 mg, 150 mg and 75 mg), women with spontaneous onset of labor, vs placebo)?
A: effective in reducing the need for instrumental delivery

Q: What about the “need for intervention to achieve onset of labor (conclusion)” value (all three doses, compared to placebo) of the same substance?
A: reduced the need for intervention in order to achieve onset of labor

Q: What about the “effect on cervical ripening” value (doses 300 mg and 150 mg, FIG. 3) of the same substance?
A: beneficial effect on cervical ripening

Q: What about the “estimated cervical ripening rate measured by Bishop score” value (first 7 days of treatment, all three doses (300 mg, 150 mg and 75 mg) compared to placebo, FIG. 6) of the same substance?
A: higher

Q: And the “labor time up to vaginal delivery (partus)” value (women with spontaneous onset of labor, 300 mg (p=0.070), 150 mg (p 0.654), 75 mg (p 0.114) vs placebo, FIG. 2)?
A: shorter labor time up to vaginal delivery (partus) compared to placebo
